Source: article PMC5104480 (PLoS ONE, 2016)

Assays:
[1] = Glucuronidation kinetics of diosmetin and chrysoeriol by HLMs; assay type: in vitro ADME, human; settings: human, liver microsomes, pH 7.4, Vmax/Km, formation of the named glucuronide
Description: (§1) All metabolism studies in vitro were approved by the First Hospital Affiliated to Shihezi University Research Ethics Committee. The glucuronidation assay was performed as described in previous publications. […] The incubation volumes were 120 μL, and the total organic solvent content was 1%. […] The reactions were initiated by adding UDPGA (3.5 mM) at 37°C and then allowed to stand for 30 min in a water bath. These reactions were terminated by adding 60 μL ice-cold acetonitrile containing the IS (25 nM tilianin). […] All experiments were performed in triplicate. The enzyme kinetic parameters were obtained by fitting kinetic models to the experimental data using GraphPad Prism version 5.04 for Windows (GraphPad Software Inc., San Diego, CA, USA). The best model was selected based on visual inspection of the Eadie-Hofstee plots, the calculated r^2 values, and corrected Akaike’s information criterion. The HLMs or human expressed UGT enzymes were employed for kinetic studies at concentrations ranging from 0.0021 mg/mL to 0.0053 mg/mL. The rates of the glucuronidation were fitted to the following equations: V = Cmetabolite/t×Cprotein Where V (nmol/mg/min) is the rates of the glucuronidation, Cmetabolite (μM) and Cprotein (mg/mL) respectively are the concentration of the metabolite and the reaction protein, t (min) is the reaction time. Model selection was based on visual inspection of Eadie—Hofstee plots and it was reported in our previous study. In brief, if the Eadie—Hofstee plot was linear, formation rates (V) of glucuronides at different substrate concentrations (C) were fitted to the standard Eq (1): V = Vmax×C/Km+C (1) where Km is the Michaelis-Menten constant and Vmax is the maximum rate of glucuronidation. The intrinsic clearance (CLint) was derived by Vmax/Km. […] The intrinsic clearance (CLint) was derived by Vmax1/Km1.

[2] = tested on: human liver microsomes (HLMs); assay: as above; assay type: in vitro ADME; settings: for Kinetic profile of glucuronide formation: Eadie—Hofstee plots; for Km / Vmax: formation of the named glucuronide from diosmetin or chrysoeriol
Description: as §1

UGT1A9 = molecular target: T1, UGT1A9 (Homo sapiens, UniProt O60656); assay: Glucuronidation by human expressed UGT1A9 (screening and kinetics); assay type: in vitro ADME; settings: for Kinetic profile of glucuronide formation: Eadie—Hofstee plots; for microsomal CLint: human, expressed (recombinant) human UGT1A9, pH 7.4, Vmax/Km; for Vmax: substrate diosmetin (Dio-3′-G) or chrysoeriol (Chr-7-G)
T1 construct: purchased BD Biosciences (Woburn, MA, USA)
T1 sequence (O60656 26-530): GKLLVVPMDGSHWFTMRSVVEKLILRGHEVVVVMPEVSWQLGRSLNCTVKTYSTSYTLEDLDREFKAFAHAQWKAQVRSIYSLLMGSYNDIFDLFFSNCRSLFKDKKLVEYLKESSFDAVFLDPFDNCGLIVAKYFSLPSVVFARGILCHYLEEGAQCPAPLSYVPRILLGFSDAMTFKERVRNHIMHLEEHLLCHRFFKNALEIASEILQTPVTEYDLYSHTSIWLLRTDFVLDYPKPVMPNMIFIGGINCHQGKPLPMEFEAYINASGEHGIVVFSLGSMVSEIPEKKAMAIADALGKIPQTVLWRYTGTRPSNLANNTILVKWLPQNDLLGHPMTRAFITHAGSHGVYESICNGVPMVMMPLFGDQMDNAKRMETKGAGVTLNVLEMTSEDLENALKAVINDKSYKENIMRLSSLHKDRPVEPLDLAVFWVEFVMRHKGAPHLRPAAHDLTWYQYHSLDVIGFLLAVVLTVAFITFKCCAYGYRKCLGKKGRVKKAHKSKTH
Description: as §1, with “Vmax1/Km1. The method of this study as described in detail previously. […] The incubation conditions were as follows: protein concentration: 0.0053 mg/mL; temperature of water: 37°C; shaker speed: 50 rpm; reaction time: 30 min. After incubation, all samples were pretreated as described above and analyzed by UHPLC—MS/MS.” for “Vmax1/Km1.”

HeLa—UGT1A9 cells = assay: Glucuronide excretion at different substrate concentrations in HeLa—UGT1A9 cells; assay type: cell-based; settings: for substrate concentration at which the excretion rate reached a peak: diosmetin or chrysoeriol 1.25-40 μM
Description: (§2) The excretion rates, glucuronides intracellular, Glucuronides excretion, the clearance of efflux transporter (CL) and the fraction of the metabolized dose (fmet) experiments were calculated as described in detail previously.

BCRP = molecular target: T2, BCRP (Homo sapiens, UniProt Q9UNQ0); assay: Effect of BCRP inhibitor Ko143 on glucuronide excretion in HeLa—UGT1A9 cells; assay type: cell-based
T2 construct: endogenous in cells; host or cells: HeLa cells stably transfected with UGT1A9 (from Dr. Ming Hu, University of Houston)
T2 sequence (Q9UNQ0 1-655): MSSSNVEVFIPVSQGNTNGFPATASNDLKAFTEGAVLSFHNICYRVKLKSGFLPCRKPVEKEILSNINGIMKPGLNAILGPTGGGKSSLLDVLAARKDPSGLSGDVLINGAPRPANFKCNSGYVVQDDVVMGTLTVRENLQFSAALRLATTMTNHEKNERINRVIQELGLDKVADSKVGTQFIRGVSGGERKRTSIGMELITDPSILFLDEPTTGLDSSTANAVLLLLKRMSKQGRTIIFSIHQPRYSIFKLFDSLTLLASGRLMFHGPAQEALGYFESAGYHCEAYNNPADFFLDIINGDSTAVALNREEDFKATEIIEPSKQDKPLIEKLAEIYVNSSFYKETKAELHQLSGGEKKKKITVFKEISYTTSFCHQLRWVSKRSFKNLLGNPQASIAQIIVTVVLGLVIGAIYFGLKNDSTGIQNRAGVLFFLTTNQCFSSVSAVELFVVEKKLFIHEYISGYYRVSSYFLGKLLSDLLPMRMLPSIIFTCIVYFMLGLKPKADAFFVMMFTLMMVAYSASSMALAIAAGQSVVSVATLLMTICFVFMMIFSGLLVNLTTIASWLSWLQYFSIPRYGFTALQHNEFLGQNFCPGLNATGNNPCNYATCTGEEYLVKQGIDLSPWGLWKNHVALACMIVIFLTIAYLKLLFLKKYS
Description: as §2

UGT1A6 = molecular target: T3, UGT1A6 (Homo sapiens, UniProt P19224); assay: Glucuronidation by human expressed UGT1A6 (screening and kinetics); assay type: in vitro ADME
T3 construct: purchased BD Biosciences (Woburn, MA, USA)
T3 sequence (P19224 27-532): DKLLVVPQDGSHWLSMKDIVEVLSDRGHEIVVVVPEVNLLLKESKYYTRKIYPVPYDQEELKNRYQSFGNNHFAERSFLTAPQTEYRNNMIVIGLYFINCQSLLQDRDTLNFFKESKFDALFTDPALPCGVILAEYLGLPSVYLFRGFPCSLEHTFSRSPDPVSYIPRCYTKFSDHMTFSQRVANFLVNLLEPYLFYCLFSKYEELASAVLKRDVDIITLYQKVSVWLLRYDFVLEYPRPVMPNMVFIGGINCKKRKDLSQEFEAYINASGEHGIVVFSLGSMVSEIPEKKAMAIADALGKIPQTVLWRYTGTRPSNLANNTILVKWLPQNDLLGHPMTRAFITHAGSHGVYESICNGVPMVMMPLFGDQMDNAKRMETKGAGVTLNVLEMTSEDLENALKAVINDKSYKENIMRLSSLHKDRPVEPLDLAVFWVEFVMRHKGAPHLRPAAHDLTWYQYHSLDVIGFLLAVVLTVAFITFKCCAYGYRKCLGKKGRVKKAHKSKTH
Description: as §1, with “Vmax1/Km1. The method of this study as described in detail previously. […] After incubation, all samples were pretreated as described above and analyzed by UHPLC—MS/MS.” for “Vmax1/Km1.”

UGT1A1 = molecular target: T4, UGT1A1 (Homo sapiens, UniProt P22309); assay: Glucuronidation kinetics by human expressed UGT1A1; assay type: in vitro ADME
T4 construct: purchased BD Biosciences (Woburn, MA, USA)
T4 sequence (P22309 26-533): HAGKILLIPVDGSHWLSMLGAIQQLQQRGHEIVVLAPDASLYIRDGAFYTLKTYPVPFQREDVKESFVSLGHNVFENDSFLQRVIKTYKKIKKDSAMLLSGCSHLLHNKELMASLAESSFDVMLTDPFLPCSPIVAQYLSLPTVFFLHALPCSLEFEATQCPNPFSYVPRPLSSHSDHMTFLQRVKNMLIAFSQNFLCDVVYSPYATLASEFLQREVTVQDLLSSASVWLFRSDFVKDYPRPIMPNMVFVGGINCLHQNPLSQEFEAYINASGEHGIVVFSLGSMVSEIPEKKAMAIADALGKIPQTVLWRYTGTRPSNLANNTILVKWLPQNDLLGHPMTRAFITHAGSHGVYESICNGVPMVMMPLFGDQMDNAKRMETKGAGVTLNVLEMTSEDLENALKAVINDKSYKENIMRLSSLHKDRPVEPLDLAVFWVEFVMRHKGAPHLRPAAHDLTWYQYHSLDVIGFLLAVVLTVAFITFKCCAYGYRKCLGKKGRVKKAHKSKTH
Description: as §1

[3] = 5 μM Ko143, 2.5 μM diosmetin or chrysoeriol
[4] = 10 μM Ko143, 2.5 μM diosmetin or chrysoeriol

| microsomal CLint [1] | Km [2] | microsomal CLint (UGT1A9) | Vmax (UGT1A9) | substrate concentration at which the excretion rate reached a peak (HeLa—UGT1A9 cells) | increase of total intracellular amount of glucuronide compared with the control (BCRP; [3]) | increase of total intracellular amount of glucuronide compared with the control (BCRP; [4]) | microsomal CLint (UGT1A6; human, expressed (recombinant) human UGT1A6, pH 7.4, Vmax/Km) | Vmax (UGT1A6; substrate diosmetin) | microsomal CLint (UGT1A1; human, expressed (recombinant) human UGT1A1, pH 7.4, Vmax/Km) | Vmax (UGT1A1; substrate chrysoeriol) | substrate concentration at which fmet reached a peak (HeLa—UGT1A9 cells; chrysoeriol 1.25-40 μM) | SMILES | Kinetic profile of glucuronide formation [2] | Vmax [2] | Kinetic profile of glucuronide formation (UGT1A9) | Kinetic profile of glucuronide formation (UGT1A6; Eadie—Hofstee plots) | Kinetic profile of glucuronide formation (UGT1A1; Eadie—Hofstee plots) |
| --- | --- | --- | --- | --- | --- | --- | --- | --- | --- | --- | --- | --- | --- | --- | --- | --- | --- |
| 40 µL/min/mg | 3830 ± 550 nM | 480 µL/min/mg | 0.12 ± 0.01 nmol/mg/min | 2.5 µM | 1.3 fold | 1.7 fold | – | – | – | – | – | COc1cc(-c2cc(=O)c3c(O)cc(O[C@@H]4O[C@H](C(=O)O)[C@@H](O)[C@H](O)[C@H]4O)cc3o2)ccc1O [Chr-7-G, chrysoeriol-7-O-glucuronide] | classic Michaelis—Menten kinetics | 0.15 ± 0.01 nmol/mg/min | classic Michaelis-Menten kinetic characteristics | – | – |
| 130 µL/min/mg | 4660 ± 720 nM | – | – | 10 µM | 1.1 fold | 1.5 fold | 300 µL/min/mg | 0.92 ± 0.06 nmol/mg/min | – | – | – | COc1ccc(-c2cc(=O)c3c(O)cc(O[C@@H]4O[C@H](C(=O)O)[C@@H](O)[C@H](O)[C@H]4O)cc3o2)cc1O [Dio-7-G, Diosmetin-7-O-glucuronide] | substrate inhibition profiles | 0.61 ± 0.05 nmol/mg/min | – | substrate inhibition kinetic characteristics | – |
| 6250 µL/min/mg | 190 ± 20 nM | 9520 µL/min/mg | 4.27 ± 0.13 nmol/mg/min | 2.5 µM | 1.3 fold | 1.8 fold | – | – | – | – | – | COc1ccc(-c2cc(=O)c3c(O)cc(O)cc3o2)cc1O[C@@H]1O[C@H](C(=O)O)[C@@H](O)[C@H](O)[C@H]1O [Dio-3′-G, diosmetin-3′-O-glucuronide] | classic Michaelis—Menten kinetics | 1.16 ± 0.03 nmol/mg/min | classic Michaelis-Menten kinetic characteristics | – | – |
| 1270 µL/min/mg | 150 ± 30 nM | – | – | 2.5 µM | 1.3 fold | 1.8 fold | – | – | 2260 µL/min/mg | 0.63 ± 0.06 nmol/mg/min | 2.5 µM | COc1cc(-c2cc(=O)c3c(O)cc(O)cc3o2)ccc1O[C@@H]1O[C@H](C(=O)O)[C@@H](O)[C@H](O)[C@H]1O [Chr-4′-G, chrysoeriol-4′-O-glucuronide] | substrate inhibition profiles | 0.20 ± 0.01 nmol/mg/min | – | – | substrate inhibition kinetic characteristics |
